Legend:
NF-κB-signaling (Ube2V2) = experiment: NF-κB dual luciferase reporter assay after T-REX on Halo-Ube2V2; type: cell-based, human; details: T-REX HNEylation of Ube2V2 in place of Ube2V1
Protocol: 1.5-1.6×10^5 HEK 293T cells were seeded in each well of a 48-well plate. 24 h later, the cells were transfected with 120 ng of the designated HaloTag fusion gene plasmid and 120 ng of NF-kB-Firefly luciferase: pCMV-Renilla luciferase (40:1) mix, using TransIT-2020 transfection agent. 24 h post-transfection, cells were treated with 25 μM Ht-PreHNE or vehicle (corresponding volume of DMSO alone) for 2.5 h, rinsed three times and irradiated with 365 nm UV light for 10 min. The cells were incubated for a further 8 h. For dual luciferase assay, cells in each well were gently washed with 1×DPBS and lysed in 65 μL of 1× passive lysis buffer containing in final concentrations 25 mM Tris (pH 7.8), 2 mM 1,2-CDTA, 2 mM DTT, 1 mg/mL BSA, 1% Triton X-100, and 10% Glycerol. 20 μL of the lysate was transferred to a white opaque 96-well plate (Corning). Firefly luciferase was read after adding 50 μL Firefly substrate (75 mM HEPES pH 8.0, 4 mM MgSO4, 20 mM DTT, 0.1 mM EDTA, 0.53 mM ATP, 0.27 mM Coenzyme-A, 0.47 mM D-Luciferin Firefly). Subsequently, 50 μL of Stop and Glow substrate (7.5 mM sodium acetate pH 5.0, 400 mM sodium sulfate, 10 mM CDTA, 15 mM sodium pyrophosphate, 0.025 mM APMBT, 5.5 μM Coelenterazine) was added and Renilla luciferase activity was measured.

[1] = tested on: DNA synthesis in HEK293T cells; experiment: EdU/BrdU dual-pulse DNA-replication efficiency assay; type: cell-based, human; details: wt-Ube2V2 cells, post T-REX
Protocol: 4.8×10^5 cells were plated in glass-bottomed dishes (In Vitro Scientific) and allowed to grow for 24 h. Cells were transfected with the indicated plasmid and allowed to grow for another 24 h. Cells were then treated with 3 μM Ht-PreHNE no alkyne for 2.5 h followed by two rinses with serum-free medium. After this time, 20 μM EdU (final concentration) was added into cell culture media for 30 min before the 3rd rinse. The cells were rinsed another two times before light shining. 2.5 h post light irradiation, cells were treated with 50 μM BrdU for 30 min at 37° C. Then the cells were fixed with −20° C. pre-chilled MeOH for 20 min and then carried on to immunofluorescence assay as described elsewhere.
Whether DNA-synthesis stall (that occurs in response to many DNA damage events) accompanies C69-specific Ube2V2-HNEylation was investigated. A dual-pulse assay was used, which involves sequential, timed pulsing with two orthogonal DNA-labeling agents (EdU, followed by BrdU) that can be detected by fluorescence imaging (FIG. 13D). This assay is very accurate, because DNA-synthesis is measured over a defined time range, allowing a good estimate of synthesis-rate to be determined.

Ube2V2 = Ube2V2 (Homo sapiens, UniProt Q15819); experiment: T-REX in zebrafish embryos, biotin/streptavidin pulldown of HNEylated Ube2V2; type: in vivo; details: human Halo-Ube2V2 mRNA-injected embryos
Sequence of Ube2V2 (Q15819 whole entry): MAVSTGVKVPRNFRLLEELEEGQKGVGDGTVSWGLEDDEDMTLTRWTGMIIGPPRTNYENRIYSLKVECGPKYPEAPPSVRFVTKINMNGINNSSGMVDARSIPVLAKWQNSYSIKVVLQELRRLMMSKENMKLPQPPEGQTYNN
Protocol: Zebrafish cell lysis was performed with similar procedure as mammalian cells: 50 mM HEPES (pH 7.6), 150 mM NaCl, 1% Nonidet P-40, 0.2 mg/ml soybean protease inhibitor (Sigma), and 3× Roche cOmplete, mini, EDTA-free protease inhibitor cocktail by rapid freeze-thaw and votexing with zirconia beads (Bio spec 0.7 mm beads; 11079107zx).
Total protein concentration from either mammalian cell lysate or zebrafish lysate was determined using Bradford assay with BSA as standard. The lysate was subsequently diluted to 2 mg/mL with a buffer made up of 50 mM HEPES (pH 7.6) and 0.3 mM TCEP, and subjected to Click reaction with biotin azide for 30 min at 37° C. The final concentrations of each components were: 1% SDS, 5% t-BuOH, 200 μM Biotin azide, 2 mM TCEP, 0.9 mM CuSO4 and 0.1 mM Cu(TBTA). The lysate proteins were precipitated by adding 4 volumes of EtOH pre-chilled at −20° C. (EtOH final concentration is 80%). The sample was vortexed and incubated at −80° C. overnight (or at least 4 h) to facilitate precipitation. The precipitant was collected by centrifugation at 21,000×g for 120 min at 4° C. and washed twice with pre-chilled MeOH, once with pre-chilled acetone. […]
DDR preconditioning occurs in zebrafish embryos. […] Subsequently, the fish were fixed and γ-H2AX levels were measured using whole-mount immunofluorescence.

Compound: CCCCCC(O)/C=C/C=O (stereo not drawn) [HNE, 4-hydroxynonenal]
- NF-κB-pathway activation (NF-κB-signaling (Ube2V2)): did not result in NF-κB-pathway activation
- DNA-synthesis stall [1]: the extent of DNA-synthesis stall was similar to that observed under mitomycin-C treatment
- HNEylation of Ube2V2 in zebrafish (Ube2V2): significantly HNEylated

Source: patent US11506670B2, “Method of genome-wide direct identification of electrophile-sensing targets” (Cornell University, priority 2018, dated 2022)
